Values of other authors, collected in US20080166420A1, “Krill Oil Compositions” (priority 2007, published 2008).

O=C(O)c1cccnc1 [Niacin, niacin]
C-reactive protein (CRP) (clinically shown): reduce | high density lipoproteins (clinically shown): significant increase | lipoprotein (a) (clinically shown): significant reduction | low density lipoproteins (clinically shown): reduction | total cholesterol (clinically shown): reduction | triglycerides (clinically shown): significant reduction | fibrinogen (in vivo): reduce
